The values that follow come from patent publication US10258639B2, “Methods for treating insulin resistance and for sensitizing patients to GLP1 agonist therapy” (Research Development Foundation, priority 2014, dated 2019).

Molecules are shown by their SMILES.

This data set has as its system INS1 cells. The data set can be described thus: RNAseq of INS1 cells infected with ACREB compared to GFP and stimulated with FSK. In kind it is cell-based, rat. Also noted: Irs2 RNAseq value, FSK / MafA RNAseq value, FSK / Nr4a2 RNAseq value, FSK / Diras2 RNAseq value, FSK: unit not given here. As to conditions: for Diras2 fold induction / Irs2 fold induction / MafA fold induction / Nr4a2 fold induction: FSK vs control; for Diras2 RNAseq value, FSK / Irs2 RNAseq value, FSK / MafA RNAseq value, FSK / Nr4a2 RNAseq value, FSK: stimulated with FSK. As for the experimental part:
Transcriptome-wide studies were performed to identify CREB target genes that promote insulin expression and secretion. […] INS-1 insulinoma cells were cultured in RPMI (corning cellgro) containing 10% fetal bovine serum (Gemini Bio Products), 100 μg/mL penicillin-streptomycin and 1 mM sodium pyruvate (corning cellgro). MIN6 cells were grown in DMEM (corning cellgro) with 10% FBS, 100 μg/mL penicillin-streptomycin and 70 uM beta-mercaptoethanol. For chronic glucose experiments, cells were maintained under low (2.8 mM) or high (20 mM) glucose for 3 days. Exendin-4 (10 nM), Forskolin (10 μM), KCl (40 mM), DMOG (1 mM) and rapamycin (50 nM) were added to cells as indicated. Cellular cAMP levels were measured using an ELISA kit (Cayman Chemical Company) according to manufacturer's instructions. Total RNAs from cells or primary islets were extracted using Trizol and cDNA was generated using the Transcriptor First Strand cDNA Synthesis kit (Roche Applied Science). cDNAs were quantified on a lightcycler 480 instrument (Roche Applied Science). Gene expression data were presented relative to the expression of housekeeping gene L32 (rat samples) and 18S (mouse and human islets). RNA-Seq libraries were prepared using the mRNA isolation protocol and the NEBNext-Ultra kits from New England Biolabs following the manufacturer's protocols. Libraries were quantitated by Qubit (Invitrogen), and run on a MiSeq instrument with paired-end 75 bp reads using v3 chemistry (Illumina) Data were analyzed by tophat2 and cuffdiff against the mouse mm10 genome build. The GEO accession number for RNAseq studies reported in the paper is GSE60158.

Where the note is “INS1 cells infected with ACREB”, `C=C[C@@]1(C)CC(=O)[C@]2(O)[C@@]3(C)[C@@H](O)CCC(C)(C)[C@@H]3[C@H](O)[C@H](OC(C)=O)[C@@]2(C)O1` [FSK, Forskolin] showed a Diras2 fold induction of 1.7 fold, an Irs2 fold induction of 2.3 fold, a MafA fold induction of 3.7 fold and a Nr4a2 fold induction of 6.3 fold. Under “INS1 cells infected with ACREB”, the “Diras2 RNAseq value, FSK” value worked out at 109.5; the “Irs2 RNAseq value, FSK” value is listed as 38.8; the “MafA RNAseq value, FSK” value was 90.2; the “Nr4a2 RNAseq value, FSK” value worked out at 5.5. Further, under “INS1 cells infected with GFP”, the Diras2 fold induction came to 11.5 fold, the Irs2 fold induction worked out at 5.6 fold, the MafA fold induction came out at 8.7 fold and the Nr4a2 fold induction is 56.6 fold. Under “INS1 cells infected with GFP”, the “Diras2 RNAseq value, FSK” value came out at 519.7; the “Irs2 RNAseq value, FSK” value came out at 289.9; the “MafA RNAseq value, FSK” value is 474.4; the “Nr4a2 RNAseq value, FSK” value is listed as 106.5.
